SMILES strings stand for the structures. Several values for one entry are separate records, joined by “and”; a condition that tells them apart may be missing. Identical values can stand only once.

Among the data in BindingDB's records for doi:10.1186/s12858-015-0048-3 (Texas Wesleyan University, 2015) are IC50 values, retold here.

The target of this test is T1, Dual specificity protein phosphatase 5 [180-384] (Homo sapiens, UniProt Q16690).
T1 construct: 180-384
T1 sequence (Q16690 whole entry): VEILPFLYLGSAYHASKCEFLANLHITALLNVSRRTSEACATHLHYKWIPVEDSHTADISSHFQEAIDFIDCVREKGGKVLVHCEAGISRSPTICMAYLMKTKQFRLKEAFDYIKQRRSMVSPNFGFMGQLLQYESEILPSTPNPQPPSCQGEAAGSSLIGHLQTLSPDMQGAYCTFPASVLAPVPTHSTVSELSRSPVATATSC
The test can be described thus: p-NPP Assay. The note with it: 25 °C. On the procedure: For the 96-well plate validation assay, sodium orthovanadate (Sigma Aldrich) was utilized as a positive control for inhibition [Swarup et al., Biochem. Biophys. Res. Commun., 107:1104-9] at a final concentration of 10 μM, to completely block DUSP5(WT) enzymatic activity. All plate assays were performed in standard 96-well clearbottom plates (Thermo Scientific Nunc) with a total assay volume of 200 μL, using a SpectraMax M5 Microplate Reader (Molecular Devices). The plate validation assay was performed with replicate columns of positive control wells, negative control wells and blank wells. Blank columns contained only buffer and pNPP. Negative control (uninhibited) contained buffer, pNPP, and DUSP5PD(WT); and, positive control contained the same components,but also contained 10 μM sodium orthovanadate. The plate was then shaken and allowed to equilibrate in the spectrophotometer at 25 °C for 30 min. After incubation, 4 μL of a 50 μM enzyme stock was dispensed into appropriate wells utilizing a single-channel pipette. This produced a final enzyme concentration of1 μM. Before a read was taken, the plate was shaken for five seconds. The initial rate for the DUSP5PD(WT) reaction was linear for approximately 90 min;and, the plate was kept in the spectrophotometer at 25 °C for an additional 80 min after the kinetic read. The endpoint reading was subsequently taken at 90 min after initiation of reaction.
Regarding `O=S(=O)(O)c1ccc2[nH]c3c(S(=O)(=O)O)cc(S(=O)(=O)O)cc3c2c1` [RR505], the IC50 (in general, the concentration that gives 50% inhibition) is 5.1 mM and 26 mM.
`O=S(=O)(O)c1ccc2c(S(=O)(=O)O)cc(S(=O)(=O)O)cc2c1` [naphthalene-1,3,6-trisulfonate(3-)]: the IC50 was determined as 6.4 mM.
Next, `Cc1ccc(C(=O)Nc2ccc(S(=O)(=O)O)c3cc(S(=O)(=O)O)cc(S(=O)(=O)O)c23)cc1NC(=O)c1cccc(NC(=O)Nc2cccc(C(=O)Nc3cc(C(=O)Nc4ccc(S(=O)(=O)O)c5cc(S(=O)(=O)O)cc(S(=O)(=O)O)c45)ccc3C)c2)c1` [Suramin hexasodium]: 0.044 mM.
